# In paper PMC7736581, “Activation of the IRE1 RNase through remodeling of the kinase front pocket by ATP-competitive ligands” (Nature Communications, 2020):
# Read-outs that look alike come from different tables or passages of the source.
# Assays:
# [1] = system: T1, IRE1 (endogenous, KMS-11); test: cells; set-up: XBP1s mRNA by branched DNA assay in KMS-11 cell lysates after compound treatment; settings: Homo sapiens, KMS-11, 4 h
# T1 construct: endogenous full-length in KMS-11 cells
# Procedure: 15-20k KMS-11 cells in RPMI growth media were seeded into 96-well plates and treated with compounds or DMSO control over a period of 4 h the following day. RNA levels of XBP1s and DGAT2 in KMS-11 cell lysates were measured using the QuantiGene 2.0 bDNA assay technology (Thermofisher). See Supplementary Table 4 for sequences of relevant capture probes. Data analysis was carried out against an assay background control with no cell lysate (no-RNA control). In the case of AMG-18, cells were also stimulated with thapsigargin (Tg, 100 nM) 30 min after compound addition. No Tg was used when treating cells with all other compounds. Samples were run in duplicate. To investigate whether this peculiar conformation had any role in the mechanism of activation of G-1749, we evaluated different tails to substitute the ethyl carbamate on the naphthyl moiety (Fig. 3, Supplementary Table 2). […] This is likely due to clashes with residues lining the front pocket, which in turn would force the tails to occupy the back pocket and break the salt bridge, thereby causing RNase inhibition. […] Experiments in KMS-11 cells (Fig. 3b, c, right panels) confirmed the effect of these tail modifications on IRE1 RNase activation. […] The chemical substituents tolerated by the front pocket seem to be very limited: even a minor substitution of the carbamate oxygen atom to a larger [compound left out], from ethyl carbamate to propyl amide (compound 6), or from methyl carbamate to methyl or ethyl amide (compound 4 or 5, respectively), or increasing the tail length by one atom, from ethyl to propyl carbamate (compound 11), is enough to impart a switch from activation to inhibition (Fig. 3b, c). […] RNA cleavage was measured by a kinetic fluorescence assay using an XBP1-like RNA hairpin substrate and IRE1 LKR construct (Q470-L977). Background from the no-protein control was subtracted from signal before calculating fold change. Source data are provided as a Source Data file. Data are presented as the mean for measurements from two independent experiments (n = 2). c RNA levels for IRE1 RNase product XBP1s measured by bDNA assay of lysates from KMS-11 cells treated with compounds for 4 h. Background from the no-RNA control was subtracted from signal before calculating fold change. Source data are provided as a Source Data file. Data are presented as the mean for measurements from two independent experiments (n = 2). d, e Analytical Ultracentrifugation sedimentation velocity (SV-AUC) experiments for (d), IRE1 LKR (Q470-L977) unphosphorylated and autophosphorylated and (e), IRE1 LKR unphosphorylated in the presence of slight excess G-9807 and G-1749. Calculated sedimentation coefficients for IRE1 monomer (3.1 svedbergs) and dimer (4.6 svedbergs) are highlighted by dotted lines. Source data are provided as a Source Data file.
# [2] = molecular target: Inositol-Requiring Enzyme 1 (IRE1) (Homo sapiens, UniProt O75460); test: biochemical; set-up: gene ERN1; IRE1 cytoplasmic kinase-RNase construct; kinetic fluorescence RNA cleavage (FAM/BHQ XBP1 stem-loop) by IRE1 LKR Q470-L977
# Chain of Inositol-Requiring Enzyme 1 (IRE1) (O75460 547-977): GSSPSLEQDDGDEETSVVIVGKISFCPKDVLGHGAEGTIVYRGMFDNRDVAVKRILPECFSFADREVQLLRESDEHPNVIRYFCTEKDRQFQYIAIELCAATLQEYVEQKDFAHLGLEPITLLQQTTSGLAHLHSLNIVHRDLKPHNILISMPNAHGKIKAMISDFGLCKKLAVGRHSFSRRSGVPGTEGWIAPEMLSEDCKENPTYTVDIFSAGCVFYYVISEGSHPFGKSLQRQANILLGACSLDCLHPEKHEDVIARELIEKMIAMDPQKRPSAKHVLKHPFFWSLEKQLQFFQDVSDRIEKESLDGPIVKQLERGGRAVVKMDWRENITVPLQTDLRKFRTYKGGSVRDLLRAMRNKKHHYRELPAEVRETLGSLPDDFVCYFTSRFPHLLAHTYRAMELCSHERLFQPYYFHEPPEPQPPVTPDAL
# Procedure: A 5′-Carboxyfluorescein (FAM)-and 3′-Black Hole Quencher (BHQ)-labeled single stem-loop mini-substrate containing XBP1 sequence (sequence reported in Supplementary Table 4) was used as substrate for cleavage by IRE1 LKR (Q470-L977) or IRE1 KR (G547-L977) in 20 mM HEPES pH 7.5, 50 mM potassium acetate, 1 mM magnesium acetate, 1 mM dithiothreitol, 0.05% v/v TritonX-100. Concentrations were as follows: 8 nM IRE1 LKR and 200 nM RNA substrate; 22 nM IRE1 KR-0P and 200 nM RNA substrate; 2 nM IRE1 KR 3P and 500 nM RNA substrate. RNA cleavage was measured kinetically over an hour at room temperature as an increase in fluorescence. The final reaction was carried out in 20 µL in 384-well plates. Samples were run in duplicate. To investigate whether this peculiar conformation had any role in the mechanism of activation of G-1749, we evaluated different tails to substitute the ethyl carbamate on the naphthyl moiety (Fig. 3, Supplementary Table 2). […] This is likely due to clashes with residues lining the front pocket, which in turn would force the tails to occupy the back pocket and break the salt bridge, thereby causing RNase inhibition. […] Experiments in KMS-11 cells (Fig. 3b, c, right panels) confirmed the effect of these tail modifications on IRE1 RNase activation. […] The chemical substituents tolerated by the front pocket seem to be very limited: even a minor substitution of the carbamate oxygen atom to a larger [compound left out], from ethyl carbamate to propyl amide (compound 6), or from methyl carbamate to methyl or ethyl amide (compound 4 or 5, respectively), or increasing the tail length by one atom, from ethyl to propyl carbamate (compound 11), is enough to impart a switch from activation to inhibition (Fig. 3b, c). […] RNA cleavage was measured by a kinetic fluorescence assay using an XBP1-like RNA hairpin substrate and IRE1 LKR construct (Q470-L977). Background from the no-protein control was subtracted from signal before calculating fold change. Source data are provided as a Source Data file. Data are presented as the mean for measurements from two independent experiments (n = 2). c RNA levels for IRE1 RNase product XBP1s measured by bDNA assay of lysates from KMS-11 cells treated with compounds for 4 h. Background from the no-RNA control was subtracted from signal before calculating fold change. Source data are provided as a Source Data file. Data are presented as the mean for measurements from two independent experiments (n = 2). d, e Analytical Ultracentrifugation sedimentation velocity (SV-AUC) experiments for (d), IRE1 LKR (Q470-L977) unphosphorylated and autophosphorylated and (e), IRE1 LKR unphosphorylated in the presence of slight excess G-9807 and G-1749. Calculated sedimentation coefficients for IRE1 monomer (3.1 svedbergs) and dimer (4.6 svedbergs) are highlighted by dotted lines. Source data are provided as a Source Data file.
# [3] = molecular target: IRE1 LKR (Q470-L977), autophosphorylated (human) (UniProt O75460); test: AUC; sedimentation velocity; IRE1 LKR at 3.3, 10 and 30 µM without compound; 25 mM HEPES pH 7.5, 250 mM NaCl, 1 mM TCEP; 20 °C, 45,000 rpm, A280; fit to a monomer-dimer equilibrium model (Sedanal); monomer to dimer
# [4] = molecular target: IRE1 LKR (Q470-L977), unphosphorylated (human) (UniProt O75460); test: AUC; sedimentation velocity; unphosphorylated IRE1 LKR at 3.3, 10 and 30 µM with a slight (ca. 15% molar) excess of G-9807 (4, 12, 35 µM); 25 mM HEPES pH 7.5, 250 mM NaCl, 1 mM TCEP; 20 °C; fit to a monomer-dimer equilibrium model; monomer to dimer
# [5] = XBP1s mRNA decrease, read-out: EC50 (KMS-11 bDNA assay, XBP1s), inhibitors
# [6] = RNase inhibition, inhibitor, read-out: EC50 (RNase biochemical assay), inhibitors
# [7] = RNase inhibition, read-out: EC50 (RNase biochemical assay), inhibitors
# [8] = XBP1s mRNA increase, read-out: EC50 (KMS-11 bDNA assay, XBP1s), activators
# [9] = RNase activation, read-out: EC50 (RNase biochemical assay), activators
Compound,"EC50 [1, 5] [nM]","EC50 [2, 6] [nM]",other results
"Cc1ccc2c(NC(=O)C#CCC(C)(C)C)cccc2c1Oc1ncccc1-c1ccnc(N[C@H]2CCCNC2)n1 [compound 12, 12]",645 ± 111,52 ± 12,
"IRE1 LKR (Q470-L977), autophosphorylated (from UniProt O75460 470-977) (domain or fragment)",,,Kd [3]: 67000 nM; stoichiometry N [3]: 2
CC(=O)Nc1cccc2c(Oc3ncccc3-c3ccnc(N[C@H]4CCCNC4)n3)c(C)ccc12 [compound 4],649 ± 241,,"EC50 [2, 7]: 8 ± 2 nM"
"Cc1ccc2c(NC(=O)OC(C)C)cccc2c1Oc1ncccc1-c1ccnc(N[C@H]2CCCNC2)n1 [compound 7, 7]",456 ± 226,36 ± 5,
"IRE1 LKR (Q470-L977), unphosphorylated (from UniProt O75460 470-977) (domain or fragment)",,,stoichiometry N [4]: 2
CCCC(=O)Nc1cccc2c(Oc3ncccc3-c3ccnc(N[C@H]4CCCNC4)n3)c(C)ccc12 [compound 6],221 ± 52,,"EC50 [2, 7]: 22 ± 35 nM"
"Cc1ccc2c(NC(=O)C#CC(C)(C)C)cccc2c1Oc1ncccc1-c1ccnc(N[C@H]2CCCNC2)n1 [compound 10, 10]",380 ± 109,35 ± 5,
C/C=C/C(=O)Nc1cccc2c(Oc3ncccc3-c3ccnc(N[C@H]4CCCNC4)n3)c(C)ccc12 [compound 1],,,"EC50 [1, 8]: 331 ± 128 nM; EC50 [2, 9]: 7 ± 1 nM"
CCCOC(=O)Nc1cccc2c(Oc3ncccc3-c3ccnc(N[C@H]4CCCNC4)n3)c(C)ccc12 [compound 11],234 ± 78,,"EC50 [2, 7]: 29 ± 6 nM"
COC(=O)Nc1cccc2c(Oc3ncccc3-c3ccnc(N[C@H]4CCCNC4)n3)c(C)ccc12 [compound 2],,,"EC50 [1, 8]: 3370 ± 709 nM; EC50 [2, 9]: 4 ± 4 nM"
"Cc1ccc2c(N)cccc2c1Oc1ncccc1-c1ccnc(N[C@H]2CCCNC2)n1 [compound 3, 3]",,,"EC50 [1, 8]: 3260 ± 480 nM; EC50 ([2]; RNase activation, activator, read-out: EC50 (RNase biochemical assay), activators): 31 ± 23 nM"
"Cc1ccc2c(NC(=O)OCC(C)(C)C)cccc2c1Oc1ncccc1-c1ccnc(N[C@H]2CCCNC2)n1 [compound 9, 9]",1050 ± 372,68 ± 21,
"Cc1ccc2c(NC(=O)OCC(C)C)cccc2c1Oc1ncccc1-c1ccnc(N[C@H]2CCCNC2)n1 [compound 8, 8]",465 ± 154,18 ± 3,
CCC(=O)Nc1cccc2c(Oc3ncccc3-c3ccnc(N[C@H]4CCCNC4)n3)c(C)ccc12 [compound 5],816 ± 346,,"EC50 [2, 7]: 28 ± 5 nM"
